Data as given in US10308916B2, “Omega-transaminase mutants with activity improvements toward ketones and methods for producing optically pure amines” (Industry-Academic Cooperation Foundation, Yonsei University, priority 2015, dated 2019).
Like-named read-outs stand apart in the source and are kept apart here.

Legend:
Type in all cases: biochemical
OATA L57A/W58A = tested on: OATA L57A/W58A
OATA L57A/W58A/V154A = tested on: OATA L57A/W58A/V154A
OATA L57A [1] = tested on: OATA L57A
OATA W58L [2] = tested on: OATA W58L
OATA W58A [3] = tested on: OATA W58A
OATA W58I = conditions: pH 7
OATA L57C/W58L/I261A = tested on: OATA L57C/W58L/I261A
OATA W58V = conditions: pH 7
OATA W58A [4] = conditions: pH 7
OATA W58L [5] = tested on: OATA W58L; remark: listed apart in the source
OATA W58M = conditions: pH 7
OATA W58L [6] = conditions: pH 7
OATA L57A [7] = tested on: OATA L57A; remark: listed apart in the source
OATA W58L [8] = tested on: OATA W58L; remark: listed apart in the source

| Compound | Relative reactivity, OATA W58L (OATA W58L [2]) [%] | Relative reactivity, OATA W58A (OATA W58A [3]) [%] | Relative activity to acetophenone, OATA W58I (OATA W58I) [%] | Relative activity to acetophenone, OATA W58V (OATA W58V) [%] | Relative activity to acetophenone, OATA W58A (OATA W58A [4]) [%] | Relative activity to acetophenone, OATA W58M (OATA W58M) [%] | also measured |
| --- | --- | --- | --- | --- | --- | --- | --- |
| CCCCCCC(=O)C(=O)O [2-oxooctanoic acid] |  |  |  |  |  |  | Relative activity, OATA L57A/W58A (OATA L57A/W58A): 7%; Relative activity, OATA L57A/W58A/V154A (OATA L57A/W58A/V154A): 21%; Relative activity, OATA L57A (OATA L57A [1]): 2% |
| Cc1cccc(C)c1OCC(C)N (centres unmarked) [Mexiletine, reference compound] | 284 | 197 |  |  |  |  |  |
| CCCCCCC(C)=O [Ketone 1l, 2-octanone] |  |  | 73 | 140 | 122 | 81 | Relative activity, OATA L57C/W58L/I261A (OATA L57C/W58L/I261A): 13,757%; Conversion (%) OATAW58L (OATA W58L [5]): 91%; Relative activity to acetophenone, OATA W58L (OATA W58L [6]): 209% |
| (S)-sec-butylamine | 266 | 66 |  |  |  |  |  |
| COc1ccc([C@H](C)N)cc1 [(S)-4-methoxy-α-methylbenzylamine] | 98 | 44 |  |  |  |  |  |
| COCC(C)N (centres unmarked) [1-Methoxy-2-propylamine] | 119 | 126 |  |  |  |  |  |
| O=C1CCCc2ccccc21 [Ketone 1h, α-tetralone] |  |  | 16 | 12 | 19 | 17 | Relative activity, OATA L57C/W58L/I261A (OATA L57C/W58L/I261A): 243%; Relative activity to acetophenone, OATA W58L (OATA W58L [6]): 0.7% |
| CCCC(C)N (centres unmarked) [2-Aminopentane] | 272 | 194 |  |  |  |  |  |
| CC(C)C(=O)C(=O)O [3-methyl-2-oxobutyric acid] |  |  |  |  |  |  | Relative activity, OATA L57A/W58A/V154A (OATA L57A/W58A/V154A): 11% |
| CC(C)=O [acetone] |  |  | 18 | 18 | 19 | 19 |  |
| CC(C)C(C)N (centres unmarked) [1,2-Dimethylpropylamine] | 305 | 101 |  |  |  |  |  |
| CC(C)CC(C)N (centres unmarked) [1,3-Dimethylbutylamine] | 283 | 173 |  |  |  |  |  |
| CC(=O)c1ccc(C)cc1 [Ketone 1d, 4-methylacetophenone] |  |  | 74 | 52 | 56 | 68 | Relative activity, OATA L57C/W58L/I261A (OATA L57C/W58L/I261A): 1,096%; Conversion (%) OATAW58L (OATA W58L [5]): 91%; Relative activity to acetophenone, OATA W58L (OATA W58L [6]): 51% |
| CCCC(=O)C(=O)O [2-oxopentanoic acid] |  |  |  |  |  |  | Relative activity, OATA L57A/W58A (OATA L57A/W58A): 103%; Relative activity, OATA L57A/W58A/V154A (OATA L57A/W58A/V154A): 206%; Relative activity, OATA L57A (OATA L57A [1]): 40% |
| O=C1CCc2ccccc21 [Ketone 1g, 1-indanone] |  |  | 16 | 17 | 15 | 20 | Relative activity, OATA L57C/W58L/I261A (OATA L57C/W58L/I261A): 609%; Relative activity, OATA L57A (OATA L57A [7]): 0.6%; Relative activity to acetophenone, OATA W58L (OATA W58L [6]): 2% |
| CCCCC(=O)C(=O)O [2-oxohexanoic acid] |  |  |  |  |  |  | Relative activity, OATA L57A/W58A (OATA L57A/W58A): 49%; Relative activity, OATA L57A/W58A/V154A (OATA L57A/W58A/V154A): 114%; Relative activity, OATA L57A (OATA L57A [1]): 15% |
| CC(N)CO (racemic) [DL-Alaninol] | 39 | 13 |  |  |  |  |  |
| CC(=O)CCO [4-hydroxy-2-butanone] |  |  | 20 | 20 | 17 | 29 |  |
| CCCCC(C)=O [Ketone 1k, 2-hexanone] |  |  | 54 | 62 | 52 | 57 | Conversion (%) OATAW58L (OATA W58L [5]): 93%; Relative activity to acetophenone, OATA W58L (OATA W58L [6]): 281% |
| cyclpropyl methyl ketone [Ketone 1o] |  |  | 17 | 14 | 14 | 19 | Relative activity to acetophenone, OATA W58L (OATA W58L [6]): 4% |
| CC(=O)C(=O)O [pyruvate, pyruvic acid] |  |  |  |  |  |  | Relative activity, OATA L57A/W58A (OATA L57A/W58A): 707%; Fold-increase in kcat/KM (OATA W58L [8]): 0.41; decrease in specificity constant (kcat/KM) (OATA W58L [8]): 60%; fold increase in turnover number (kcat) (OATA W58L [8]): 7.1; weaker binding, fold decrease in KM as printed (OATA W58L [8]): 17.5; Relative activity, OATA L57A/W58A/V154A (OATA L57A/W58A/V154A): 1,190%; Relative activity, OATA L57A (OATA L57A [1]): 77% |
| CCC(=O)CO [1-hydroxy-2-butanone] |  |  | 16 | 8 | 9 | 21 |  |
